Test results: ChEMBL document CHEMBL3507680, “University of Dundee, Gates Library screen for HepG2 cell viability”

Experiment: Human HepG2 cell viability assay in 384 well format
Type: toxicity, cell-based
Parameters: dose 125 nL, time 70.5 hour; cytotoxicity at 70.5 h: concentration not given beside the values
Conditions: HepG2 cells, read-out: Inhibition

SMILES	cytotoxicity at 70.5 h [%]
CCOC(=O)c1cnn(-c2cc(Oc3ccccc3)ncn2)c1N	3.77
O=C(CN1CCCC1)Nc1c2c(cc3c1CCC3)CCC2	-4.72
CNC(C)Cc1ccccc1Sc1ccc(O)cc1 (stereo not given)	-8.32
CCOC(=O)c1cnn(-c2cc(Oc3ccccc3C)ncn2)c1N	23.9
COc1cccc2c3c(c(=O)[nH]c12)CC(C)(C)O3	-6.98
CCCS(=O)(=O)N1CCC2(CC1)CN(C(=O)N(C)C)c1ccccc12	-10.2
O=S(=O)(C1CC1)N1CCCC2(COCCN(c3nncs3)C2)C1 (stereo not given)	12.7
O=C(C1CCC2(CCN(c3nncs3)CC2)C1)N1CCCC1 (stereo not given)	9.17
CO[C@@H]1CC[C@H]2[C@H]1OCCN2S(=O)(=O)c1cn(C)cn1	0.221
Cc1cccc(N2CC[C@@H]3[C@@H](CO[C@H]3CNC(=O)c3ccco3)C2)n1	-0.126
O=C(NCc1ccccc1)N1C[C@H]2C[C@H](C(=O)N3CCCC3)[C@@H](C1)O2	-5.41
CC(C)C(=O)N1CCC12CCCN(C(=O)c1ccccc1)C2 (stereo not given)	-2.99
CC(C)CNC(=O)c1nc2c(s1)CCN(C(=O)c1cccnc1)CC2	-4.69
O=C(C1CCC2(CCN(c3ncccn3)CC2)CO1)N1CCCC1 (stereo not given)	-5.27
O=C(NCCc1ccccc1)N1C[C@H]2C[C@H](C(=O)N3CCCC3)[C@@H](C1)O2	0.399
Cn1cnc(S(=O)(=O)N2CCO[C@H]3[C@H](OCC4CC4)CC[C@@H]32)c1	-2.37
CCS(=O)(=O)N1CCCC2(COCCN(c3nncs3)C2)C1 (stereo not given)	-2.49
Cc1cnc(C(=O)N2CCC3(CC2)C(=O)NCCN3CC(C)C)cn1	-2.5
COc1cc(C2CC(=O)Nc3c2c(=O)[nH]n3C2CCCC2)ccc1O (stereo not given)	-2.72
O=C1CCCN1Cc1noc(-c2ccc(Cl)cc2)n1	-6.78
CCc1ccc(NC(=O)CC2Cn3ncnc3NC2=O)cc1 (stereo not given)	-16.3
CCOc1ccc(NC(=O)c2cc3c([nH]c2=O)CCC3)cc1	-13.3
Cc1ccc(NC(=O)CC2Cn3ncnc3NC2=O)cc1C (stereo not given)	-8.36
CCOCCCNC(=O)CN(c1cc(C)cc(C)c1)S(C)(=O)=O	-14.2
CC(C)n1c(=O)c2sccc2n(CC(=O)Nc2ccccc2)c1=O	-11
Cc1n[nH]c2c1C(c1ccc3c(c1)OCO3)SCC(=O)N2 (stereo not given)	25.4
CC(C)CN1CCn2c(nc3cc(C(=O)NC(C)C)ccc32)C1	-11.8

SMILES	cytotoxicity at 70.5 h [%]
CCOc1ccc(C2SCC(=O)Nc3c2c(=O)[nH]n3C(CC)CC)cc1 (stereo not given)	-6.79
O=C(Cc1csc(-c2ccccc2)n1)N[C@@H](C(=O)O)c1ccccc1	-9.17
CSC1=Nc2c(cnn2-c2ccc(C)cc2)C2=NCCCN12	-10.1
CSC1=Nc2c(cnn2-c2ccccc2)C2=NCCCN12	-8.98
CC(C)C(NC(=O)Cn1nc2c(cc1=O)CCCC2)C(=O)O (stereo not given)	-13.5
O=C(Cn1nc2c(cc1=O)CCCC2)NC(C(=O)O)c1ccccc1 (stereo not given)	-12.2
CC1=Nc2c(c(O)nn2C(C)C)C(c2cn(C)nc2C)S1 (stereo not given)	21
Cc1ccc(-c2[nH][nH]c(=O)c2CCN)cc1	-14.2
Cc1ccc(-c2[nH]c3ccccc3c2C(=O)O)c(C)c1	-4.63
Cc1cccc(NC(=O)c2csc(NCC(C)C)n2)n1	-14.8
O=C(CSC1CCc2ccccc2NC1=O)Nc1ccc(CCO)cc1 (stereo not given)	-1.18
O=C(O)C1CCN(C(=O)Cn2ccc3c(Cl)cccc32)CC1	-12.6
CC(=O)N1CCN(C(=O)Cn2ccc3c(Cl)cccc32)CC1	-16.8
CC(C)OCCCNC(=O)C1CCCN(c2ccc3nncn3n2)C1 (stereo not given)	-9.82
O=C(O)CSC1CCc2ccccc2NC1=O (stereo not given)	-14.7
CC(C)n1[nH]c(=O)c2c1NC(=O)CC2c1cccc(O)c1 (stereo not given)	-9.65
O=C1CC(c2ccccc2)c2sc(C(=O)O)c(-c3ccccc3)c2N1 (stereo not given)	-8.23
COc1ccc(NC(=O)Cn2cc(-c3ccccc3)ncc2=O)cn1	-6.77
O=C(Cn1cc(-c2ccccc2)ncc1=O)Nc1nccs1	7.52
O=C(Cn1c(=O)nc2n1C(=O)N(c1ccccc1)C2)NC1CCCCC1	-7.65
CCOC(=O)N1CCN(C(=O)c2sc(-c3ccncc3)nc2C)CC1	23.5
CC(C)NC(=O)Cn1cc(-c2ccccc2)ncc1=O	-7.17
CCNS(=O)(=O)c1cnccc1N1CCN(CCO)CC1	4.82
NC(=O)CSc1nnc2n1N=CN(c1ccccc1F)C2	-6.75
O=c1c2cn[nH]c2nc(SCCN2CCOCC2)n1-c1ccccc1	-7.75
O=S(=O)(Cc1ccc(Br)cc1)NCCO	-0.457
Cc1nn(S(=O)(=O)c2ccc(Cl)cc2)c(C)c1C	38.4

SMILES	cytotoxicity at 70.5 h [%]
CC(=O)c1c(C)nn(S(=O)(=O)c2ccccc2)c1C	3.79
CCOC1Sc2nnc(C)n2N=C1c1ccc(Cl)cc1 (stereo not given)	-8.8
CCc1nn(-c2cc(Oc3ccccc3)nc(C)n2)c(N)c1C#N	2.22
Cc1ccccc1S(=O)(=O)N(C)[C@@H]1CC[C@@H](n2ccnc2C)[C@@H]1O	53.4
Cc1noc(C)c1CC(=O)N[C@@H]1CC[C@@H](Oc2ccccc2)[C@@H]1O	-3.35
Cc1nccn1-c1nccnc1C1CCCN(C)C1 (stereo not given)	-4.67
CNc1ccc(C2CN(c3cc(C)ncn3)CCO2)nc1 (stereo not given)	1.5
Cc1ccnc(C2CCN(CCCOc3ccccc3F)C2)n1 (stereo not given)	-1.63
Cc1cc(-c2ccnn2C)nc(C2CCN(S(C)(=O)=O)CC2)n1	-4.75
Cc1ccccc1CC(=O)NCc1cnc(CC2CCN(C)CC2)cn1	-4.57
CN([C@@H]1CC[C@@H](N2CCCC2)[C@@H]1O)S(=O)(=O)c1ccccc1	24.7
O=C(CCN1CCCCC1)Nc1c2c(cc3c1CCC3)CCC2	-1.77
CCN(CC)CCn1c(=O)oc2ccccc21	-3.03
CCC(CO)NCc1ccc(-c2ccc(F)cc2)o1 (stereo not given)	-2.16
CCC(CO)NCc1ccc(-c2ccccc2)o1 (stereo not given)	29.3
NCCc1c(-c2ccccc2)[nH][nH]c1=O	-7.56
Cc1cccc(CN2C[C@@H]3CN(C4CCOCC4)C[C@@H]3C2=O)c1	-4.96
Fc1cnccc1CN1CCC2(CCN2c2ncccn2)C1 (stereo not given)	-7.95
Fc1cnccc1CN1CCCC2(CCN(c3ncccn3)CC2)C1	-5.15
CCOCc1cnc2n1CCN(Cc1nc(C)cs1)C2C (stereo not given)	-3.1
Cc1ccc(N2CC[C@@H]3CN(Cc4cc[nH]n4)C[C@@H]3C2)nn1	-2.82
CN(C)CCOCc1ncn2c1CN(c1ncc(F)cn1)CCC2	-3.65
O=C1[C@H]2CN(C3CCOCC3)C[C@H]2CN1Cc1ccncc1	-8.99
CN(Cc1cccnc1)C[C@@H]1OC[C@H]2CN(Cc3ccco3)CC[C@H]21	-2.49
COc1cc(CN(C)[C@@H]2COC[C@H]2c2ccc(F)cc2)cc(OC)c1	0.803
CC(N)Cc1ccccc1Sc1ccccc1 (stereo not given)	-1.45
